This note sets out measurements from patent US5990083A, “Multicatalytic protease inhibitors” (Cephalon, Inc., priority 1997, dated 1999).

“And” between values parts separate entries of the source, which are not always exact repeats. Equal entries are not always repeated.

For this experiment, the target named is T1, human MCP (Homo sapiens, UniProt P28074+Q99436).
T1 construct: Samples of human liver and brain obtained post-mortem were used for isolation and partial purification of MCP; from tissue; host or cells: human liver and brain, post-mortem
The experiment is described as follows: Determination of IC50 values for MCP inhibitors (chymotrypsin-like or trypsin-like activity of MCP). It is filed as biochemical. Conditions: for % Inhibition (1 μM): 1 μM inhibitor. The protocol:
Samples of human liver and brain obtained post-mortem were used for isolation and partial purification of MCP by ion-exchange chromatography, ammonium sulfate precipitation, and gel filtration (e.g., Driscoll and Goldberg, Proc. Natl. Acad. Sci. 86, 787-791 (1989); Yamamoto et al., Biochim, Biophys. Acta 882, 297-304 (1986). For either starting material, tissue was homogenized in 10 volumes of 20 mM Tris-HCl (pH 7.5) containing 20% glycerol. Following centrifugation at 40,000×g for 30 minutes, proteolytic activity of the chymotrypsin-like component of MCP could be detected in the supernatant (see below). The supernatant was fractionated on a DEAE-Sepharose Fast Flow column equilibrated in homogenization buffer. For each liter of supernatant, 250 ml of resin was used. Following sample loading, the column was washed with ^~ 10 volumes homogenization buffer, and proteins were eluted with a linear NaCl gradient of from 0 to 400 mM (21 for 250 ml resin). Fractions were assayed for MCP activity, and the active fractions were pooled and subjected to precipitation with (NH4)2 SO4 at 80% saturation. Precipitated proteins were collected by centrifugation, resuspended in homogenization buffer, and loaded on a Sephacryl S300HR column (500 ml resin volume) that had been standardized using bovine serum albumin (68 kDa). A single peak of MCP activity was eluted with a molecular weight of ^~ 650 kDa. This preparation was free of other measurable proteolytic activities and maintained its MCP activity upon storage at 4° C. for >6 months. This preparation was used for most of the experiments. Further fractionation of the preparation on an hydroxyapatite-Ultrogel column (Yamamoto et al., supra) yielded a more highly purified enzyme, which according to denaturing SDS-polyacrylamide gel electrophoresis was comprised of the expected >10 subunits ranging in Mr from 20 to 35 kDa.
The procedure for MPC isolation described above generated an enzyme complex whose proteolytic activities were latent, but which could be activated by addition of low concentrations (0.02-0.05%) of SDS (Yamamoto et al., supra). The chymotrypsin-like activity was assayed according to the following procedure: in 96 well microtiter plates, human MCP was diluted 4 to 10-fold in homogenization buffer containing 0.04% SDS. A calorimetric substrate MeOSuc-EVKM-para-nitroanilide (methoxysuccinyl-Glu-Val-Lys-Met-pNa), purchased from Bachem Bioscience Inc., King of Prussia, Pennsylvania was added to a final concentration of 100 μM from a stock solution of 10 mM in dimethylsulfoxide. Reaction volumes were 200 μl per well. After incubation for various periods of time at 37° C., the concentration of free pNa was determined on a Biotech EL-340 microplate reader, reading absorption at 490 nm. Protease activity was determined under conditions in which substrate hydrolysis increased linearly with time and the change in absorption was proportional to the concentration of free pNa. Alternatively, a fluorogenic substrate was used, methoxysuccinyl-Phe-Leu-Phe-amidomethylcoumarin (Enzyme Systems Products, Dublin, Calif.), and the change in fluorescence monitored at an excitation of 390 nm, and an emission at 460 nm.
The trypsin-like activity of human MCP was assayed as described above with the following modifications. Reactions were carried out in Tris-glycerol buffer (pH 9.5) supplemented with 1 mM 2-mercaptoethanol, and the substrate was a fluorogenic substrate, Benzyloxycarbonyl--Phe--Arg--AMC (100 μM).
After incubation for various periods of time at 37° C., the concentration of free AMC was determined on a Fluoroskan II spectrofluorimeter with an excitation filter of 390 nm and an emission filter of 460 nm. Protease activity was determined under conditions in which substrate hydrolysis increased linearly with time and the change in fluorescence was proportional to the concentration of free AMC. […]

Setting [1] is: Table 5, first series, enzyme incubated with inhibitor 15 minutes at 37° C. prior to substrate.
Setting [2] is: Table 5, second series (Examples 36-38), enzyme incubated with inhibitor 15 minutes at 37° C. prior to substrate.

On to `CCNC(=O)C(=O)[C@H](CC(C)C)NC(=O)[C@H](CCCNC(N)=N[N+](=O)[O-])NC(=O)C(CCCCCCCCC#N)C1CCCC1` (single isomer, unassigned; isomer a) [41 (Isomer a), 10-Cyano-2-Cyclopentyl-decanoyl-N^g-nitro-L-arginyl-L-leucine alpha-ketoethylamide], for which the IC50 (commonly the concentration that inhibits the measured activity by half) (Table 7) was 22 nM. The “% Inhibition (1 μM)” value (Table 7, 1 µM) stood at 99%.
`CC(C)C[C@H](NC(=O)[C@H](CCCNC(=N)N[N+](=O)[O-])NC(=O)C(CCCCCCCCC#N)C1CCCC1)C(=O)CCl` (single isomer, unassigned; isomer b) [39 (Isomer b), 10-Cyano-2-cyclopentyl-decanoyl-N^g-nitro-L-arginyl-L-leucine chloromethylketone] returned an IC50 (Table 7) greater than 1000 nM. Further, the “% Inhibition (1 μM)” value (Table 7, 1 µM) was 21%.
Under setting [1], `Cc1c(C)c(S(=O)(=O)NC(=N)NCCC[C@H](NC(=O)C(CCCCCCCCC#N)C2CCCC2)C(=O)N[C@H](C=O)CC(C)C)c(C)c2c1OC(C)(C)CC2` (stereo partly drawn) [Compound 15, 10-Cyano-2-cyclopentyl-decanoyl-N^g-(2,2,5,7,8-pentamethylchroman-6-sulfonyl)-L-arginyl-L-leucinal] came in with an IC50 of 20 nM.
The same measure, in the same setting: under `CCCC[C@@H](C=O)NC(=O)[C@H](CCCNC(=N)NS(=O)(=O)c1c(C)c(C)c2c(c1C)CCC(C)(C)O2)NC(=O)C(CCCCCCCC(=O)OC)C1CCCC1` (stereo partly drawn) [Compound 22, 9-Methoxycarbonyl-2-cyclopentyl-nonanoyl-N^g-(2,2,5,7,8-pentamethylchroman-6-sulfonyl)-L-arginyl-L-norleucinal] stands 110 nM.
The molecule “Monomethylazelayl-N^g -nitro-L-arginyl-L-phenylalaninal [Compound 27]” displayed an IC50 under setting [1] of 130 nM.
With `CC(C)CC(NC(=O)[C@H](CCCNC(N)=N[N+](=O)[O-])NC(=O)C(CCCCCCCCC#N)C1CCCC1)B1OC(C)(C)C(C)(C)O1` (stereo partly drawn) [Example 40, 10-Cyano-2-cyclopentyl-decanoyl-N^g-nitro-L-arginyl-boroleucine pinacol ester], for the setting “Table 7”, it took 6 nM to reach half-maximal inhibition (IC50) and the “% Inhibition (1 μM)” value is listed as 100%.
`COC(=O)CCCCCCCC(=O)N[C@@H](CCCN=C(N)N[N+](=O)[O-])C(=O)N[C@H](C=O)CC(C)C` [Compound 26, Monomethylazelayl-N^g -nitro-L-arginyl-L-leucinal] displayed an IC50 under setting [1] of 40 nM.
Same read-out and setting: under `COC(=O)CCCCCCCC(=O)N[C@@H](CCCNC(=N)NS(=O)(=O)c1c(C)c(C)c2c(c1C)CCC(C)(C)O2)C(=O)N[C@H](C=O)CC(C)C` [Compound 28, Monomethylazelayl-N^g-(2,2,5,7,8-pentamethylchroman-6-sulfonyl)-L-arginyl-L-leucinal] stands 20 nM.
Regarding `CC(C)C[C@H](NC(=O)[C@H](CCCNC(=N)N[N+](=O)[O-])NC(=O)C(CCCCCCCCC#N)C1CCCC1)C(=O)CCl` (single isomer, unassigned; isomer a) [39 (Isomer a), 10-Cyano-2-cyclopentyl-decanoyl-N^g-nitro-L-arginyl-L-leucine chloromethylketone], the IC50 (Table 7) is greater than 1000 nM. Moreover, where the note is “Table 7, 1 µM”, the “% Inhibition (1 μM)” value was determined as 31%.
`COC(=O)CCCCCCCC(=O)N[C@@H](CCCN=C(N)NS(=O)(=O)c1ccc(C)cc1)C(=O)N[C@H](C=O)CC(C)C` [Compound 31, Monomethylazelayl-N^g -(p-toluenesulfonyl)-L-arginyl-L-leucinal]: the IC50 under setting [1] came out at 75 nM.
Regarding `COC(=O)CCCCCCCC(C(=O)N[C@@H](CCCNC(N)=NS(=O)(=O)c1c(C)cc(OC)c(C)c1C)C(=O)N[C@H](C=O)CC(C)C)C1CCCC1` (stereo partly drawn) [Compound 21, 9-Methoxycarbonyl-2-cyclopentyl-nonanoyl-N^g-(4-methoxy-2,3,6-trimethyl-benzene-1-sulfonyl)-L-arginyl-L-leucinal], under setting [1], the half-inhibitory concentration (IC50) was 30 nM.
Take `N#CCCCCCCCCC(C(=O)N[C@@H](CCCNC(N)=N[N+](=O)[O-])C(=O)NC(Cc1ccccc1)C(=O)CF)C1CCCC1` (stereo partly drawn) [Example 42, 10-Cyano-2-cyclopentyl-decanoyl-N^g-nitro-L-arginyl-phenylalanine fluoromethylketone]: for the setting “Table 7”, the IC50 is greater than 1000 nM and the “% Inhibition (1 μM)” value is reported as 15%.
Molecule `COC(=O)CCCCCCCC(=O)N[C@H](CCCNC(N)=NS(=O)(=O)c1c(C)c(C)c2c(c1C)CCC(C)(C)O2)C(=O)N[C@H](C=O)CC(C)C` [Compound 29, Monomethylazelayl-N^g-(2,2,5,7,8-pentamethylchroman-6-sulfonyl)-D-arginyl-L-leucinal] came in with an IC50 under setting [1] greater than 300 nM.
Still for that read-out and setting: under `CCCC[C@@H](C=O)NC(=O)[C@H](CCCN=C(N)NS(=O)(=O)c1c(C)c(C)c2c(c1C)CCC(C)(C)O2)NC(=O)CCCCCCCC(=O)OC` [Compound 30, Monomethylazelayl-N^g-(2,2,5,7,8-pentamethylchroman-6-sulfonyl)-L-arginyl-L-norleucinal] stands greater than 100 nM.
Same read-out and setting: under `COC(=O)CCCCCCCC(=O)N[C@@H](CCCNC(N)=NS(=O)(=O)c1c(C)cc(C)cc1C)C(=O)N[C@H](C=O)CC(C)C` [Compound 35, Methoxyazelayl-N^g-(2,4,6-trimethylbenzene-1-sulfonyl)-L-arginyl-L-leucinal] stands 40 nM.
Under setting [2], `Cc1c(C)c(S(=O)(=O)NC(N)=NCCC[C@H](NS(=O)(=O)CCCCCCC#N)C(=O)N[C@H](C=O)CC(C)C)c(C)c2c1OC(C)(C)CC2` [Compound 36, 6-Cyano-hexane-1-sulfonyl-N^g-(2,2,5,7,8-pentamethylchroman-6-sulfonyl)-L-arginyl-L-leucinal] returned an IC50 greater than 100 nM.
`COC(=O)CCCCCCCC(=O)N[C@@H](CCCNC(N)=NS(=O)(=O)c1c(C)cc(OC)c(C)c1C)C(=O)N[C@H](C=NNC(N)=O)CC(C)C` [Compound 32, Monomethylazelayl-N^g-(4-methoxy,2,3,6-trimethyl-1-sulfonyl)-L-arginyl-L-leucinal semicarbazone]: half-maximal inhibition under setting [1] (IC50) required 220 nM.
Regarding `CC(C)C[C@@H](C=O)NC(=O)[C@H](CCCNC(=N)N[N+](=O)[O-])NC(=O)C(CCCCCCCCNS(=O)(=O)C(F)(F)F)C1CCCC1` (stereo partly drawn) [Compound 25, 10-(trifluoromethanesulfonyl)amino-2-cyclopentyl-decanoyl-N^g-nitro-L-arginyl-L-leucinal], the IC50 under setting [1] was 8 nM and 5 nM.
Still for that read-out and setting: under `COC(=O)CCCCCCCC(C(=O)N[C@@H](CCCNC(N)=N[N+](=O)[O-])C(=O)N[C@H](C=O)CC(C)C)C1CCCC1` (stereo partly drawn) [Compound 23, 9-Methoxycarbonyl-2-cyclopentyl-nonanoyl-N^g-nitro-L-arginyl-L-leucinal] stands 5 nM.
Molecule `CC(C)C[C@@H](C=O)NC(=O)[C@H](CCCNC(=N)N[N+](=O)[O-])NC(=O)c1ccc2ccccc2c1` [Compound 37, 2-Naphthoyl-N^g-nitro-L-arginyl-L-leucinal] displayed an IC50 under setting [2] of 250 nM.
Under setting [1], `COC(=O)CCCCCCCC(=O)N[C@@H](CCCNC(N)=NS(=O)(=O)c1c(C)cc(OC)c(C)c1C)C(=O)N[C@H](C=NNC(N)=S)CC(C)C` [Compound 33, Monomethylazelayl-N^g-(4-methoxy,2,3,6-trimethyl-1-sulfonyl)-L-arginyl-L-leucinal thiosemicarbazone] had a half-inhibitory concentration (IC50) of 700 nM.
Same read-out and setting: the same measure for `CON=C[C@H](CC(C)C)NC(=O)[C@H](CCCN=C(N)N[N+](=O)[O-])NC(=O)C(CCCCCCCCC#N)C1CCCC1` (stereo partly drawn) [Compound 18, 10-cyano-2-cyclopentyl-decanoyl-N^g-nitro-L-arginyl-L-leucinal-O-methyloxime]: 700 nM.
